US8637501B2, “Azinone-substituted azepino[b]indole and pyrido-pyrrolo-azepine MCH-1 antagonists, methods of making, and use thereof” (Albany Molecular Research, Inc., priority 2009, dated 2014)
pKi: −log10 of the molar value.

How the values were obtained:
[1] = target: human MCH-1 receptor (Homo sapiens (Human), UniProt Q99705); test: Binding Assay for Human Melanin-Concentrating Hormone (MCH-1) Receptor; conditions: radioligand displacement, membranes from CHO-K1 cells expressing human MCH-1 receptor; Ki from IC50 by Cheng Prusoff equation; read-out: MCH1 Ki
Sequence of human MCH-1 receptor (Q99705 whole entry): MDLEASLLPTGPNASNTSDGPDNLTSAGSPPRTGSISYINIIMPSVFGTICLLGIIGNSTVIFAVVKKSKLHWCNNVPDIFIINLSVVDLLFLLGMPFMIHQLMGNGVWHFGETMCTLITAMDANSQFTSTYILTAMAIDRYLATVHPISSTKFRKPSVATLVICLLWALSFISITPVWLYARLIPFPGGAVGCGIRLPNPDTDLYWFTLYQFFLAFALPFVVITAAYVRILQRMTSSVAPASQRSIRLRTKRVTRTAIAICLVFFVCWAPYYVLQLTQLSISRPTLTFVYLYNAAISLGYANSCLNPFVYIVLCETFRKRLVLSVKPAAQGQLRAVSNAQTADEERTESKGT
Outline: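 Membranes from CHO-K1 cells stably expressing human MCH-1 incubated 60 min at 25 °C with 1.4 nM tritiated indazolyl-pyridinone radioligand in 50 mM Tris-HCl pH 7.4. Bound counts by filtration and scintillation; IC50 and nH by Hill fit, Ki by Cheng–Prusoff.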

Row | SMILES | melting point | pKi [1]
1 | Cl.O=c1cc(-c2ccc(C(F)(F)F)cn2)ccn1-c1ccc2c3c([nH]c2c1)CCCNC3 [Example 36, 1-(1,2,3,4,5,6-Hexahydroazepino[4,3-b]indol-8-yl)-4-(5-(trifluoromethyl)pyridin-2-yl)pyridin-2(1H)-one hydrochloride] | 310 to 320 °C (dec.) | 7.91
2 | Cl.O=c1cc(-c2ccc(C(F)(F)F)nn2)ccn1-c1ccc2c3c([nH]c2c1)CCCNC3 [Example 37, 1-(1,2,3,4,5,6-Hexahydroazepino[4,3-b]indol-8-yl)-4-(6-(trifluoromethyl)pyridazin-3-yl)pyridin-2(1H)-one hydrochloride] | 310 to 315 °C (dec.) | 7.53
3 | Cn1c2c(c3ccc(-n4ccc(OCc5ccccc5)cc4=O)cc31)C(=O)NCCC2 [Example 38] | 178 to 181 °C | 7.00
4 | Cl.Cn1c2c(c3ccc(-n4ncc(OCc5ccc(C(F)(F)F)nc5)cc4=O)cc31)CCNCC2 [Example 47, 2-(6-Methyl-1,2,3,4,5,6-hexahydroazepino[4,5-b]indol-8-yl)-5-((6-(trifluoromethyl)pyridin-3-yl)methoxy)pyridazin-3(2H)-one hydrochloride] | 270 to 274 °C | 7.13
5 | CC(=O)N1CCc2c(n(C)c3cc(-n4ccc(OCc5ccc(F)cn5)cc4=O)ccc23)CC1.Cl [Example 48, 1-(3-Acetyl-6-methyl-1,2,3,4,5,6-hexahydroazepino[4,5-b]indol-8-yl)-4-((5-fluoropyridin-2-yl)methoxy)pyridin-2(1H)-one] | 88 to 94 °C | 7.22
6 | CC(=O)N1CCc2[nH]c3cc(-n4ccc(OCc5ccccc5)cc4=O)ccc3c2CC1 [Example 54, 1-(3-Acetyl-1,2,3,4,5,6-hexahydroazepino[4,5-b]indol-8-yl)-4-(benzyloxy)pyridin-2(1H)-one] | 250 to 254 °C | 6.95
7 | Cl.Cn1c2c(c3ccc(-n4ccc(OCc5ncc(Cl)cc5Cl)cc4=O)cc31)CCNCC2 [Example 56, 4-((3,5-Dichloropyridin-2-yl)methoxy)-1-(6-methyl-1,2,3,4,5,6-hexahydroazepino[4,5-b]indol-8-yl)pyridin-2(1H)-one hydrochloride] | 178 to 180 °C | 7.57
8 | CC(=O)N1CCCc2c(c3ccc(-n4ccc(OCc5ccc(F)cn5)cc4=O)cc3n2C)C1 [Example 61, 1-(2-Acetyl-6-methyl-1,2,3,4,5,6-hexahydroazepino[4,3-b]indol-8-yl)-4-((5fluoropyridin-2-yl)methyoxy)pyridin-2(1H)-one] | 78 to 83 °C | 7.24
9 | CC(=O)N1CCCc2c(c3ccc(-n4ccc(-c5ccc(C(F)(F)F)nc5)cc4=O)cc3n2C)C1 [Example 62, 1-(2-Acetyl-6-methyl-1,2,3,4,5,6-hexahydroazepino[4,3-b]indol-8-yl)-4-(6-(trifluoromethyl)pyridin-3-yl)pyridin-2(1H)-one] | 156 to 162 °C | 7.22
10 | Cl.Cn1c2c(c3ccc(N4CCN(CCc5ccc(Cl)cc5)CC4=O)cc31)CNCCC2 [Example 64, 4-(4-Chlorophenethyl)-1-(6-methyl-1,2,3,4,5,6-hexahydroazepino[4,3-b]indol-8-yl)piperazin-2-one hydrochloride] | 252 to 257 °C | 8.34
11 | Cl.Cn1c2c(c3ccc(-n4ccc(OCc5ncc(Cl)cc5Cl)cc4=O)cc31)CNCCC2 [Example 67, 4-((3,5-Dichloropyridin-2-yl)methoxy)-1-(6-methyl-1,2,3,4,5,6-hexahydroazepino[4,3-b]indol-8-yl)pyridin-2(1H)-one dihydrochloride] | 251 to 256 °C | 7.66
12 | Cl.Cn1c2c(c3ccc(-n4ccc(OCc5ccc(F)cn5)cc4=O)cc31)CN(C1CCC1)CCC2 [Example 72, 1-(2-Cyclobutyl-6-methyl-1,2,3,4,5,6-hexahydroazepino[4,3-b]indol-8-yl)-4-((5-fluoropyridin-2-yl)methoxy)pyridin-2(1H)-one hydrochloride] | 260 to 265 °C | 8.12
13 | CN1CCCc2c(c3ccc(N4CCN(CCc5ccc(F)cc5)CC4=O)cc3n2C)C1.Cl [Example 74, 1-(2,6-Dimethyl-1,2,3,4,5,6-hexahydroazepino[4,3-b]indol-8-yl)-4-(4-fluorophenethyl)piperazin-2-one hydrochloride] | 211 to 220 °C | 8.00
14 | Cl.Cn1c2c(c3ccc(N4CCN(CCc5ccc(F)cc5)CC4=O)cc31)CN(C1CCC1)CCC2 [Example 75, 1-(2-Cyclobutyl-6-methyl-1,2,3,4,5,6-hexahydroazepino[4,3-b]indol-8-yl)-4-(4-fluorophenethyl)piperazin-2-one hydrochloride] | 194 to 205 °C | 7.85
15 | CCN1CCCc2c(c3ccc(N4CCN(CCc5ccc(F)cc5)CC4=O)cc3n2C)C1.Cl [Example 76, 1-(2-Ethyl-6-methyl-1,2,3,4,5,6-hexahydroazepino[4,3-b]indol-8-yl)-4-(4-fluorophenethyl)piperazin-2-one hydrochloride] | 190 to 205 °C | 8.01
16 | Cl.Cn1c2c(c3ccc(-n4ccc(OCc5ccccc5)cc4=O)nc31)CCNCC2 [Example 77, 4-(Benzyloxy)-1-(10-methyl-5,6,7,8,9,10-hexahydropyrido[3′,2′:4,5]pyrrolo[2,3-d]azepin-2-yl)pyridin-2(1H)-one hydrochloride] | 180 to 185 °C (dec.) | 7.96
17 | Cl.Cn1c2c(c3ccc(-n4ccc(-c5ccc(C(F)(F)F)nc5)cc4=O)nc31)CCNCC2 [Example 78, 1-(10-Methyl-5,6,7,8,9,10-hexahydropyrido[3′,2′:4,5]pyrrolo[2,3-d]azepin-2-yl)-4-(6-(trifluoromethyl)pyridin-3-yl)pyridin-2(1H)-one hydrochloride] | 320 to 325 °C (dec.) | 7.54
18 | Cl.Cn1c2c(c3ccc(-n4ccc(-c5ccc(C(F)(F)F)nn5)cc4=O)nc31)CCNCC2 [Example 79, 1-(10-Methyl-5,6,7,8,9,10-hexahydropyrido[3′,2′:4,5]pyrrolo[2,3-d]azepin-2-yl)-4-(6-(trifluoromethyl)pyridazin-3-yl)pyridin-2(1H)-one hydrochloride] | 300 to 305 °C (dec.) | 6.63

Further lines, results first:

Row | melting point | pKi [1] | SMILES
19 | 268 to 275 °C (dec.) | 7.83 | Cl.Cn1c2c(c3ccc(-n4ccc(OCc5ccc(F)cn5)cc4=O)cc31)CCCNC2 [Example 19, 4-((5-Fluoropyridin-2-yl)methoxy)-1-(10-methyl-1,2,3,4,5,10-hexahydroazepino[3,4-b]indol-8-yl)pyridin 2(1H)-one hydrochloride]
20 | 283 to 287 °C (dec.) | 8.33 | Cl.Cn1c2c(c3ccc(-n4ccc(OCc5ccccc5)cc4=O)cc31)CNCCC2 [Example 21, 4-(Benzyloxy)-1-(6-methyl-1,2,3,4,5,6-hexahydroazepino[4,3-b]indol-8-yl)pyridin-2(1H)-one hydrochloride]
21 | 264 to 270 °C (dec.) | 8.33 | Cl.Cn1c2c(c3ccc(-n4ccc(-c5ccc(C(F)(F)F)cn5)cc4=O)cc31)CNCCC2 [Example 23, 1-(6-Methyl-1,2,3,4,5,6-hexahydroazepino[4,3-b]indol-8-yl)-4-(5-(trifluoromethyl)pyridin-2-yl)pyridin-2(1H)-one hydrochloride]
22 | 274 to 280 °C (dec.) | 8.28 | Cl.Cn1c2c(c3ccc(-n4ccc(-c5ccc(C(F)(F)F)nc5)cc4=O)cc31)CNCCC2 [Example 27, 1-(6-Methyl-1,2,3,4,5,6-hexahydroazepino[4,3-b]indol-8-yl)-4-(6-(trifluoromethyl)pyridin-3-yl)pyridin-2(1H)-one hydrochloride]
23 | 248 to 252 °C (dec.) | 7.96 | Cl.Cn1c2c(c3ccc(-n4ccc(-c5ccc(C(F)(F)F)nn5)cc4=O)cc31)CNCCC2 [Example 28, 1-(6-Methyl-1,2,3,4,5,6-hexahydroazepino[4,3-b]indol-8-yl)-4-(6-(trifluoromethyl)pyridazin-3-yl)pyridin-2(1H)-one hydrochloride]
24 | 250 to 255 °C (dec.) | 8.31 | CSc1ccc(-c2ccn(-c3ccc4c5c(n(C)c4c3)CCCNC5)c(=O)c2)cc1.Cl [Example 32, 1-(6-Methyl-1,2,3,4,5,6-hexahydroazepino[4,3-b]indol-8-yl)-4-(4-(methylthio)phenyl)pyridin-2(1H)-one hydrochloride]
25 | 245 to 250 °C (dec.) | 7.76 | Cc1ccc(-c2ccn(-c3ccc4c5c(n(C)c4c3)CCCNC5)c(=O)c2)cn1.Cl [Example 33, 1-(6-Methyl-1,2,3,4,5,6-hexahydroazepino[4,3-b]indol-8-yl)-4-(6-methylpyridin-3-yl)pyridin-2(1H)-one hydrochloride]
26 | 260 to 266 °C | 8.30 | Cl.Cn1c2c(c3ccc(-n4ccc(OCc5ccc(Cl)cn5)cc4=O)cc31)CNCCC2 [Example 63, 4-((5-Chloropyridin-2-yl)methoxy)-1-(6-methyl-1,2,3,4,5,6-hexahydroazepino[4,3-b]indol-8-yl)pyridin-2(1H)-one hydrochloride]
27 | 272 to 280 °C | 8.14 | Cl.Cn1c2c(c3ccc(-n4ccc(OCc5ccc(F)cc5F)cc4=O)cc31)CNCCC2 [Example 66, 4-(2,4-Difluorobenzyloxy)-1-(6-methyl-1,2,3,4,5,6-hexahydroazepino[4,3-b]indol-8-yl)pyridin-2(1H)-one hydrochloride]
28 | 191 to 200 °C | 8.09 | Cl.Cn1c2c(c3ccc(-n4ccc(OCc5ccc(Cl)cc5F)cc4=O)cc31)CNCCC2 [Example 68, 4-(4-Chloro-2-fluorobenzyloxy)-1-(6-methyl-1,2,3,4,5,6-hexahydroazepino[4,3-b]indol-8-yl)pyridin-2(1H)-one hydrochloride]
